The results in this text go back to patent publication US12466834B2, “Imidazodiazepinediones and methods of use thereof” (GFB (ABC), LLC, priority 2018, dated 2025).

The structures appear in SMILES notation. Bounds are passed on as bounds.

This test concerns the target T1, human TRPC5 (Homo sapiens, UniProt Q9UL62).
T1 construct: expressed in transfected cells
T1 sequence (Q9UL62 1-973): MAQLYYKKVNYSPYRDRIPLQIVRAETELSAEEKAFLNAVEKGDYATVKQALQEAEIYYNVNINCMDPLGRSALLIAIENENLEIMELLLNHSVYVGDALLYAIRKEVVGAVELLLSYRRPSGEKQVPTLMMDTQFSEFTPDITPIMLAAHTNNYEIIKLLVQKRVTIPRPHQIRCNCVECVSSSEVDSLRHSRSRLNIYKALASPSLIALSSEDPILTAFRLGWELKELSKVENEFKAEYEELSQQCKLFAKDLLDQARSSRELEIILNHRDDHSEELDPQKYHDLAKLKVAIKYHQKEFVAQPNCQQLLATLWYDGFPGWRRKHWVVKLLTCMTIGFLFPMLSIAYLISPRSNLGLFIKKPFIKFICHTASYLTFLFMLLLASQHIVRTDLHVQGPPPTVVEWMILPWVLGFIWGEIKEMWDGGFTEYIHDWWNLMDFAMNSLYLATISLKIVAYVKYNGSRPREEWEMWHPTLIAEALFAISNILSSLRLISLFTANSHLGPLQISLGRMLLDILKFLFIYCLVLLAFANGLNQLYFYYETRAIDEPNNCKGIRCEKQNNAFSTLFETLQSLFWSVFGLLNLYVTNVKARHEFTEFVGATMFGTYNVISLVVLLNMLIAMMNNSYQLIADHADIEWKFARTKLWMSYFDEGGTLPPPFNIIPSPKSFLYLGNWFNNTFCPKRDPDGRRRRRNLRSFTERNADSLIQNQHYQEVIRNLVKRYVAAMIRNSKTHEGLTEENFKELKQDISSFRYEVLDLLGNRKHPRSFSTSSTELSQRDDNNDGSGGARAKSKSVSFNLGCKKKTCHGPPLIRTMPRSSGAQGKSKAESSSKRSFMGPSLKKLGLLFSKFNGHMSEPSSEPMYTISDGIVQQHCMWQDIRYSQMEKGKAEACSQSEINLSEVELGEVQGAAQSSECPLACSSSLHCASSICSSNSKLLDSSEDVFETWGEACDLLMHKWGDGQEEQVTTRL
Description: FLIPR calcium assay, inhibition of riluzole-activated TRPC5 calcium response. The class given is cell-based. As to conditions: ICLN-1633 cells; riluzole 30 μM stimulation; Fluo-4 calcium response; read-out: Inhibitor Potency Range (FLIPR). As to the method:
ICLN-1633 cells (HEK-TREx hTRPC5) expressing TRPC5 were generated as follows. Commercially available HekTrex-293 cells were seeded at 0.7×10^6 cells/well in a 1×6-well plate 24 hrs prior to transfection using 2 mL cell growth media containing no antibiotics (1× DMEM/high glucose (Hyclone #SH30022.02); 10% fetal bovine serum (Sigma) 2 mM sodium pyruvate, 10 mM HEPES). The human TRPC5 coding sequence (NM_012471 with a silent T478C mutation) was cloned into pcDNA5/TO (Invitrogen; Cat No. V103320) using hygromycin as the resistance gene and the plasmid (SEQ ID NO:1) propagated using T-Rex-293 cells (Invitrogen; Cat No. R71007) following manufacturer's directions. On day 2, 2 μg of plasmid DNA plus 6 μl of Xtreme-GENE HP reagent in Optimem (200 μl total volume) was prepared and incubated for 15 min at room temperature. This plasmid solution was then gently overlayed dropwise onto each well and the plate was gently swirled to mix complex with the media for approximately 30 seconds. Transfected cells were incubated at 37° C. in a 10% CO2 incubator for 24 hrs. The transfected cells were harvested and transferred into 2×150 mm dishes containing cell growth media with no antibiotics at 37° C.
Compounds were made up to, or supplied as a 10 mM stock solution generally using DMSO as the vehicle. 10-point dose response curves were generated using the Echo-550 acoustic dispenser. Compound source plates were made by serially diluting compound stocks to create 10 mM, 1 mM, and 0.1 mM solutions in DMSO into Echo certified LDV plates. The Echo then serially spotted 100% DMSO stock solutions into source dose response plates to generate a 4-fold dilution scheme. 100% DMSO was added to the spotted dose response plates to bring the final volume to 5 μl. 300 nl of the dose response stock plate was then spotted into pre-incubation and stimulation assay plates. 50 μl of pre-incubation buffer and 100 μl of stimulation buffer was then added to the plates resulting in a final assay test concentration range of 30 μM to 0.0001 μM with a final DMSO concentration of 0.3%.
Human ICLN-1633 cells expressing were plated onto 384 well, black poly-D-lysine-coated microplates and maintained in TRPC5 growth media the day prior to use for experiments. TRPC5 expression was induced by the application of 1 μg/mL tetracycline at the time of plating. Media was removed from the plates and 10 μl of 4 μM of Fluo-4 AM (mixed with equal volume of Pluronic F-127) in Earls's Balanced Salt Solution (EBSS) was added to the cells. Cells were incubated at room temperature, protected from light, for 60-90 minutes. After the incubation period, the dye was removed and replaced with 10 μl of EBSS. Cell, pre-incubation and stimulation plates were loaded onto the FLIPR-II and the assay was initiated. The FLIPR measured a 10 second baseline and then added 10 μl of 2× compounds (or controls). Changes in fluorescence were monitored for an additional 5 minutes. After the 5 minute pre-incubation, 20 μl of 2× riluzole (with 1× compound or controls) was added to the cell plate. The final riluzole stimulation concentration in the assay was 30 μM. After the riluzole addition, changes in fluorescence were monitored for an additional 5 minutes. Reduction in the riluzole-activated calcium response relative to control wells was reported as inhibition. A compound-mediated increase in the riluzole response relative to control riluzole response (no test agent present) with no enhancement of calcium entry during preincubation phase was reported as an agonist response.
Compound inhibition of TRPC5 calcium response was determined as follows. After the riluzole addition, fluorescence was monitored for a 5-minute period. For inhibition, the maximum relative fluorescence response (minus the control response of 1 μM of an internal control compound known to maximally block TRPC5 calcium response, the “REF INHIB” in the formula below) was captured and exported from the FLIPR. […]

`C[C@@H]1C(=O)N(C)c2nc(Oc3cccc(F)c3)n(Cc3ccc(Cl)cc3)c2C(=O)N1CCCO` (single isomer, unassigned) [Compound 19]: the IC50 is greater than 10000 nM.

With `O=C1c2c(nc(Oc3cccc(OC(F)(F)F)c3)n2Cc2ccc(Cl)cc2)N2CCC[C@H]2C(=O)N1CCCO` (single isomer, unassigned) [Compound 22], the IC50 was greater than 10000 nM. For `O=C1c2c(nc(Oc3cccc(OC(F)(F)F)c3)n2Cc2ccc(Cl)cc2)N2CCC[C@@H]2C(=O)N1CCCO` (single isomer, unassigned) [Compound 23] the value was 1 to 1000 nM. The same measure for `CN1CC(=O)N(CCCO)C(=O)c2c1nc(Oc1cccc(OC(F)(F)F)c1)n2Cc1ccc(Cl)cc1` [Compound 21, 1-[(4-chlorophenyl)methyl]-7-(3-hydroxypropyl)-4-methyl-2-[3-(trifluoromethoxy)phenoxy]-1H,4H,5H,6H,7H,8H-imidazo[4,5-e][1,4]diazepine-6,8-dione]: 1 to 1000 nM.
